According to paper PMC6721824, “IGFs Potentiate TAC3-induced SLα Expression via Upregulation of TACR3 Expression in Grass Carp Pituitary Cells” (Cells, 2019):
Peptide text beside a SMILES is read from it.

Tests used:
MEK1/2 = test: Western blot for signaling kinases: MEK1/2 phosphorylation; format: cell-based, grass carp (Ctenopharyngodon idellus); conditions: grass carp pituitary cells, senktide (1 µM) + IGF-I (50 nM), 15 min
Procedure: (§1) The pituitary cells derived from twenty grass carp pituitaries were seeded in 24-well culture plates at a density of 2.5 × 10^6 cells/mL/well and incubated with drug treatment for the duration as indicated in the individual experiments. […] After drug treatment, the culture medium from individual wells was removed and the remaining cells were rinsed with PBS and lysed in RIPA buffer (50 mM Tris^·HCl, 150 mM NaCl, 1 mM EDTA, 1% NP-40, and 0.25% Na deoxycholate), containing a final concentration of 1×protease/phosphatase inhibitor cocktail (Roche). The cell lysate was cleared by high-speed centrifugation at 4 °C, the clear supernatant was resolved in 10% gel by SDS-PAGE, and Western blotting was conducted according to the procedures as previously described. The antibodies that can be detected, the phosphorylated and total ERK1/2 (1:5,000), MEK1/2 (1:1,000), p38 MAPK (1:1,000), and Akt (1:1,000), were used at the dilutions recommended by the manufactures. […] Chemiluminescence signals for target immune-reactivity were detected using SuperSignal West Pico (PIERCE, Rockford, IL, USA) as the substrate and quantified using the IC440 CF Digital Science Image Station (Eastman Kodak, Rochester, NY, USA). […]

p38MAPK = test: Western blot for signaling kinases: p38MAPK phosphorylation; format: cell-based, grass carp (Ctenopharyngodon idellus); conditions: grass carp pituitary cells, senktide (1 µM) + IGF-I (50 nM), 15 min
Procedure: as §1

grass carp TACR3 [1] = target: T1, grass carp TACR3 (Ctenopharyngodon idella, UniProt A0A075BDW2); test: Fluorescence-based receptor binding assay, displacement of FAM-NKBa tracer; parameters: species or system grass carp (Ctenopharyngodon idellus); conditions: HEK-293 cells with stable expression of grass carp TACR3, 30 min pretreatment with competitor (0.1–1000 nM), then FAM-NKBa (10 nM) 30 min, 37 °C, fluorescence 490/520 nm; read-out: IC50 for displacing FAM-NKBa binding
T1 sequence (A0A075BDW2 1-395): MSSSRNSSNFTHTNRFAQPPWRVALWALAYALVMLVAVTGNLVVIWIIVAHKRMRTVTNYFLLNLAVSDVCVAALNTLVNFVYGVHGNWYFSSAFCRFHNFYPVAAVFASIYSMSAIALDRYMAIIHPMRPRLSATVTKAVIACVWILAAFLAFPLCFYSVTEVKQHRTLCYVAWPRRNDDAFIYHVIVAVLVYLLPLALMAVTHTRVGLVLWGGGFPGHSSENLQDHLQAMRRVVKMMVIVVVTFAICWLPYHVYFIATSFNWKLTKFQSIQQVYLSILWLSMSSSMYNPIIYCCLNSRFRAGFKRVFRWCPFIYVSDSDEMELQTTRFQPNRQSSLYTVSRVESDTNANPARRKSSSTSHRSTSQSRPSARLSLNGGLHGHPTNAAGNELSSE

[2] = tested on: SLα mRNA expression in grass carp pituitary cells; test: SLα mRNA expression (qPCR) in grass carp pituitary cells; format: cell-based, grass carp (Ctenopharyngodon idellus); conditions: senktide 1 µM, IGF-I/-II 100 nM (Figure 4E)
Procedure: Grass carp pituitary cells prepared by the trypsin/DNase digestion method were seeded in 24-well plates at ~2.5 × 10^6 cells/mL/well. On the following day, drug treatment was initiated by replacing the old medium with a testing medium with the appropriate levels of test substances, and the cells were then allowed to incubate at 28 °C for the duration as indicated. After drug treatment, total RNA was extracted from individual wells and reversely transcribed as above. The RT samples obtained were subjected to qPCR using a LightCycler SYBR Green I Kit (Roche, Stockholm, Sweden) with the primers mentioned above. In these studies, serial dilutions of plasmid DNA containing the ORF of SLα (GeneBank no.: EF372074) and TACR3 (GenBank no: JQ254913) cDNA were used as the standards for data calibration. Parallel real-time PCR measurement of β-actin was also conducted in individual experiments to serve as the internal control.
For real-time PCR of SLα and TACR3 mRNA measurement, standard curves with a dynamic range of ≥10^5 and correlation coefficient of ≥0.95 were used for data calibration with the RotorGene-Q software 1.7 (Qiagen) under unsupervised mode. SLα and TACR3 mRNA data were normalized with the β-actin transcript level and then were transformed as a percentage of the mean value in the control group without drug treatment (as “%Ctrl”). For the calcium bioluminescence signals and raw data obtained from luciferase reporter assays, the luminescence signals or luciferase activity was expressed as “relative luminescence unit (RLU)” registered by the fluorescence plate reader. For individual samples of the luciferase reporter assay, the firefly luciferase activity detected was routinely normalized against Renilla Luciferase activity expressed in the same well and expressed as the luciferase activity ration (as “Luc Ratio”). For receptor binding assay, specific binding of FAM-NKBa was measured in terms of “Arbitrary Fluorescence Unit (AFU)”. The six replicates presented (expressed as Mean ± SEM) were pooled results from two individual experiments prior to statistical analysis; all data were tested for normality of distribution using the Shapiro–Wilk normality test. Then, one-way ANOVA and two-way ANOVA were used to test the significant difference according to different experiment groups. The differences between groups were considered as significant at P < 0.05 (“*”) or highly significant at P < 0.01 (“**”).

ERK1/2 = test: Western blot for signaling kinases: ERK1/2 phosphorylation; format: cell-based, grass carp (Ctenopharyngodon idellus); conditions: grass carp pituitary cells, senktide (1 µM) + IGF-I (50 nM), 15 min
Procedure: as §1

grass carp TACR3 [3] = target: T1, grass carp TACR3; test: CRE-Luc luciferase reporter (cAMP pathway) in HEK-293 cells with stable expression of grass carp TACR3; format: cell-based, grass carp (Ctenopharyngodon idellus); conditions: SEM
Procedure: To clarify the ligand selectivity and signal transduction pathways of TACR3, functional expression of grass carp TACR3 was performed in HEK-293 cells with co-transfection of luciferase-expressing reporters targeting different signaling pathways provided by the Clontech Cell Signaling Profiling Kit (Clontech, Mountain View, CA, USA), including cAMP response element (CRE)-Luc (for cAMP pathway), activator protein-1 (AP1)-Luc (for PKC pathway), nuclear factor of activated T-cells (NFAT)-Luc (for Ca^2+/calcineurin pathway), and serum responsive element (SRE)-Luc (for MAPK pathway) [29]. […]
For the calcium bioluminescence signals and raw data obtained from luciferase reporter assays, the luminescence signals or luciferase activity was expressed as “relative luminescence unit (RLU)” registered by the fluorescence plate reader. For individual samples of the luciferase reporter assay, the firefly luciferase activity detected was routinely normalized against Renilla Luciferase activity expressed in the same well and expressed as the luciferase activity ration (as “Luc Ratio”). […] The six replicates presented (expressed as Mean ± SEM) were pooled results from two individual experiments prior to statistical analysis; all data were tested for normality of distribution using the Shapiro–Wilk normality test. […]

Akt = test: Western blot for signaling kinases: Akt phosphorylation; format: cell-based, grass carp (Ctenopharyngodon idellus); conditions: grass carp pituitary cells, senktide (1 µM) + IGF-I (50 nM), 15 min
Procedure: as §1

CSCC[C@H](NC(=O)[C@H](CC(C)C)NC(=O)CNC(=O)[C@H](Cc1ccccc1)N(C)C(=O)[C@H](Cc1ccccc1)NC(=O)[C@H](CC(=O)O)NC(=O)CCC(=O)O)C(N)=O [senktide] (HELM PEPTIDE1{[O=C(O)CCC(=O)[*:2]].D.F.[meF].G.L.M.[am]}$$$$V2.0; N-terminus and C-terminus assumed)
effect of cotreatment on IGF-I-induced protein phosphorylation of MEK1/2 (MEK1/2): did not alter
effect of cotreatment on IGF-I-induced protein phosphorylation of p38MAPK (p38MAPK): did not alter
IC50 (grass carp TACR3 [1]): 71.2 ± 9.23 nM
SLα mRNA expression on cotreatment of TACR3 agonist with IGF-I or IGF-II [2]: mimic the synergistic effects
effect of cotreatment on IGF-I-induced protein phosphorylation of ERK1/2 (ERK1/2): did not alter
EC50 (grass carp TACR3 [3]): 21.3 ± 3.2 nM
effect of cotreatment on IGF-I-induced protein phosphorylation of Akt (Akt): noticeable potentiating effect
